ChEMBL document CHEMBL4665635, “Design and synthesis of various quinizarin derivatives as potential anticancer agents in acute T lymphoblastic leukemia” (Bioorg Med Chem, 2019)
Where a name gives a salt, the structure may show the parent alone. Active and inactive are the calls of the source. The rule behind the calls is not given here.

Tests used:
K562 = test: Cytotoxicity against human K562 cells assessed as inhibition of cell proliferation after 48 hrs by MTT assay; format: functional, cell-based; settings: K562, 48 h
HEK293 [1] = test: Cytotoxicity against human HEK293 cells assessed as inhibition of cell proliferation after 48 hrs by MTT assay; format: cell-based; settings: HEK293, 48 h
HL-60 = test: Cytotoxicity against human HL60 cells assessed as inhibition of cell proliferation after 48 hrs by MTT assay; format: functional, cell-based; settings: HL-60, 48 h
MOLT-4 [2] = test: Cell cycle arrest in human MOLT-4 cells assessed as increase in cell population at G0/G1 phase at 2 to 4 uM after 24 hrs by propidium iodide/RNase staining based flow cytometric analysis; format: functional; settings: dose microM 2-4, time 24.0 hrs
MOLT-4 [3] = test: Induction of apoptosis in human MOLT-4 cells assessed as increase in cleaved caspase-3 levels at 4 uM after 24 hrs by Alexafluor-488 goat anti-rabbitIgG staining based flow cytometric analysis relative to control; format: functional
HEK293 [4] = test: Induction of ROS generation in HEK293 cells at 2 uM incubated for 12 hrs by flow cytometric analysis relative to control; format: cell-based; settings: human, hek293, 12 h
MOLT-4 [5] = test: Cytotoxicity against human MOLT4 cells assessed as inhibition of cell proliferation after 48 hrs by MTT assay; format: functional, cell-based; settings: MOLT-4, 48 h
MOLT-4 [6] = test: Induction of apoptosis in human MOLT-4 cells assessed as total apoptotic cells at 2 uM measured after 24 hrs by Annexin V-APC/7-AAD staining based flow cytometric analysis relative to control; format: functional
MOLT-4 [7] = test: Induction of ROS generation in human MOLT-4 cells at 1 uM incubated for 12 hrs by flow cytometric analysis relative to control; format: functional
Jurkat [8] = test: Induction of apoptosis in human Jurkat cells assessed as total apoptotic cells at 2 uM measured after 24 hrs by Annexin V-APC/7-AAD staining based flow cytometric analysis relative to control; format: functional
Jurkat [9] = test: Induction of apoptosis in human Jurkat cells assessed as caspase 9 activation at 2 to 4 uM incubated for 24 hrs by Western blot analysis; format: functional, cell-based; settings: dose microM 2-4, time 24.0 hrs
Jurkat [10] = test: Induction of ROS generation in human Jurkat cells at 1 uM incubated for 12 hrs by flow cytometric analysis relative to control; format: functional
CA46 = test: Cytotoxicity against human CA46 cells assessed as inhibition of cell proliferation after 48 hrs by MTT assay; format: functional, cell-based; settings: CA46, 48 h
Jurkat [11] = test: Cytotoxicity against human Jurkat cells assessed as inhibition of cell proliferation after 48 hrs by MTT assay; format: functional, cell-based
MOLT-4 [12] = test: Induction of apoptosis in human MOLT-4 cells assessed as caspase 9 activation at 2 to 4 uM incubated for 24 hrs by Western blot analysis; format: functional, cell-based; settings: dose microM 2-4, time 24.0 hrs
MOLT-4 [13] = test: Cell cycle arrest in human MOLT-4 cells assessed as decrease in cell population at S phase at 2 to 4 uM after 24 hrs by propidium iodide/RNase staining based flow cytometric analysis; format: functional; settings: dose microM 2-4, time 24.0 hrs
Jurkat [14] = test: Induction of apoptosis in human Jurkat cells assessed as total apoptotic cells at 4 uM measured after 24 hrs by Annexin V-APC/7-AAD staining based flow cytometric analysis relative to control; format: functional
MOLT-4 [15] = test: Induction of apoptosis in human MOLT-4 cells assessed as c-myc degradation at 2 to 4 uM after 24 hrs by Western blot analysis; format: functional, cell-based; settings: dose microM 2-4, time 24.0 hrs
HEK293 [16] = test: Induction of ROS generation in HEK293 cells at 1 uM incubated for 12 hrs by flow cytometric analysis relative to control; format: cell-based; settings: human, hek293, 12 h
Jurkat [17] = test: Induction of apoptosis in human Jurkat cells assessed as Notch1 degradation at 2 to 4 uM after 24 hrs by Western blot analysis; format: functional, cell-based; settings: dose microM 2-4, time 24.0 hrs
Jurkat [18] = test: Induction of apoptosis in human Jurkat cells assessed as increase in cleaved caspase-3 levels at 4 uM after 24 hrs by Alexafluor-488 goat anti-rabbitIgG staining based flow cytometric analysis relative to control; format: functional
MOLT-4 [19] = test: Induction of apoptosis in human MOLT-4 cells assessed as total apoptotic cells at 4 uM measured after 24 hrs by Annexin V-APC/7-AAD staining based flow cytometric analysis relative to control; format: functional
MOLT-4 [20] = test: Induction of ROS generation in human MOLT-4 cells at 2 uM incubated for 12 hrs by flow cytometric analysis relative to control; format: functional
Jurkat [21] = test: Induction of ROS generation in human Jurkat cells at 2 uM incubated for 12 hrs by flow cytometric analysis relative to control; format: functional
Jurkat [22] = test: Cell cycle arrest in human Jurkat cells assessed as decrease in cell population at S phase at 2 to 4 uM after 24 hrs by propidium iodide/RNase staining based flow cytometric analysis; format: functional; settings: dose microM 2-4, time 24.0 hrs
MOLT-4 [23] = test: Induction of apoptosis in human MOLT-4 cells assessed as Notch1 degradation at 2 to 4 uM after 24 hrs by Western blot analysis; format: functional, cell-based; settings: dose microM 2-4, time 24.0 hrs
Jurkat [24] = test: Induction of apoptosis in human Jurkat cells assessed as activation of PARP cleavage at 2 to 4 uM after 24 hrs by western blot analysis; format: functional, cell-based; settings: dose microM 2-4, time 24.0 hrs
MOLT-4 [25] = test: Induction of apoptosis in human MOLT-4 cells assessed as activation of PARP cleavage at 2 to 4 uM after 24 hrs by western blot analysis; format: functional, cell-based; settings: dose microM 2-4, time 24.0 hrs
[26] = Solubility in water by spectrophotometry; format: physicochemical
Jurkat [27] = test: Induction of apoptosis in human Jurkat cells assessed as caspase 3 activation at 2 to 4 uM incubated for 24 hrs by Western blot analysis; format: functional, cell-based; settings: dose microM 2-4, time 24.0 hrs
Jurkat [28] = test: Induction of apoptosis in human Jurkat cells assessed as decrease in Bcl-2 protein expression at 2 to 4 uM after 24 hrs by Western blot analysis; format: functional, cell-based; settings: dose microM 2-4, time 24.0 hrs
Jurkat [29] = test: Cell cycle arrest in human Jurkat cells assessed as increase in cell population at G0/G1 phase at 2 to 4 uM after 24 hrs by propidium iodide/RNase staining based flow cytometric analysis; format: functional; settings: dose microM 2-4, time 24.0 hrs
NB-4 = test: Cytotoxicity against human NB4 cells assessed as inhibition of cell proliferation after 48 hrs by MTT assay; format: functional, cell-based; settings: NB-4, 48 h
MOLT-4 [30] = test: Induction of apoptosis in human MOLT-4 cells assessed as decrease in Bcl-2 protein expression at 2 to 4 uM after 24 hrs by Western blot analysis; format: functional, cell-based; settings: dose microM 2-4, time 24.0 hrs
NALM-6 = test: Cytotoxicity against human NALM6 cells assessed as inhibition of cell proliferation after 48 hrs by MTT assay; format: functional, cell-based; settings: NALM-6, 48 h
Jurkat [31] = test: Induction of apoptosis in human Jurkat cells assessed as c-myc degradation at 2 to 4 uM after 24 hrs by Western blot analysis; format: functional, cell-based; settings: dose microM 2-4, time 24.0 hrs
MOLT-4 [32] = test: Induction of apoptosis in human MOLT-4 cells assessed as caspase 3 activation at 2 to 4 uM incubated for 24 hrs by Western blot analysis; format: functional, cell-based; settings: dose microM 2-4, time 24.0 hrs

## CCCCCCCC[P+](CCCCCCCC)(CCCCCCCC)Cc1ccc(COc2ccc(OCc3ccc(CSC(=N)N)cc3)c3c2C(=O)c2ccccc2C3=O)cc1
K562
  IC50: 8040 nM
HEK293 [1]
  IC50: 6660 nM
HL-60
  IC50: 5.16 µM

## O=C1c2ccccc2C(=O)c2c(OCc3ccc(CBr)cc3)ccc(OCc3ccc(CBr)cc3)c21
K562
  IC50: > 40000 nM
HEK293 [1]
  IC50: > 40000 nM
HL-60
  IC50: > 40 µM

## CCCCCCCC[N+](C)(CCCCCCCC)Cc1ccc(COc2ccc(OCc3ccc(CBr)cc3)c3c2C(=O)c2ccccc2C3=O)cc1.[Br-]
MOLT-4 [2]
  Activity: Active
MOLT-4 [3]
  Activity: 33%
HEK293 [4]
  Activity: 62.23%
MOLT-4 [5]
  IC50: 2610 nM
MOLT-4 [6]
  Activity: 22.76%
MOLT-4 [7]
  Activity: 22.2%
Jurkat [8]
  Activity: 25.57%
K562
  IC50: 2310 nM
Jurkat [9]
  Activity: Active
Jurkat [10]
  Activity: 18.63%
CA46
  IC50: 3.51 µM
Jurkat [11]
  IC50: 2800 nM
MOLT-4 [12]
  Activity: Active
MOLT-4 [13]
  Activity: Active
Jurkat [14]
  Activity: 48.96%
MOLT-4 [15]
  Activity: Dose-dependent effect
HEK293 [16]
  Activity: 2.78%
Jurkat [17]
  Activity: Dose-dependent effect
Jurkat [18]
  Activity: 43.4%
MOLT-4 [19]
  Activity: 39.67%
MOLT-4 [20]
  Activity: 73.97%
Jurkat [21]
  Activity: 38.1%
Jurkat [22]
  Activity: Active
MOLT-4 [23]
  Activity: Dose-dependent effect
Jurkat [24]
  Activity: Active
MOLT-4 [25]
  Activity: Active
[26]
  solubility: < 10 µg/mL
Jurkat [27]
  Activity: Active
Jurkat [28]
  Activity: Dose-dependent effect
HEK293 [1]
  IC50: 2440 nM
Jurkat [29]
  Activity: Active
NB-4
  IC50: 2400 nM
MOLT-4 [30]
  Activity: Dose-dependent effect
NALM-6
  IC50: 1240 nM
Jurkat [31]
  Activity: Dose-dependent effect
HL-60
  IC50: 1.4 µM
MOLT-4 [32]
  Activity: Active

## CCCCCCCC[N+](C)(CCCCCCCC)Cc1cc(O)c2c(c1)Cc1cccc(O)c1C2=O
K562
  IC50: > 40000 nM
HEK293 [1]
  IC50: > 40000 nM
HL-60
  IC50: > 40 µM

## CCCCCCCC[N+](C)(CCCCCCCC)Cc1ccc(COc2ccc(OCc3ccc(C[N+](C)(CCCCCCCC)CCCCCCCC)cc3)c3c2C(=O)c2ccccc2C3=O)cc1
K562
  IC50: 6780 nM
HEK293 [1]
  IC50: 2990 nM
HL-60
  IC50: 3.49 µM

## CCCCCCCC[P+](CCCCCCCC)(CCCCCCCC)Cc1ccc(COc2ccc(OCc3ccc(CBr)cc3)c3c2C(=O)c2ccccc2C3=O)cc1
K562
  IC50: 1240 nM
HEK293 [1]
  IC50: 2170 nM
HL-60
  IC50: 0.9 µM

## Br.Br.N=C(N)SCc1ccc(COc2ccc(OCc3ccc(CSC(=N)N)cc3)c3c2C(=O)c2ccccc2C3=O)cc1
K562
  IC50: 1810 nM
[26]
  solubility: 59.3 µg/mL
HEK293 [1]
  IC50: 3190 nM
HL-60
  IC50: 3.35 µM

## CCCCCCCC[N+](C)(CCCCCCCC)Cc1cc(O)c2c(c1)C(=O)c1cccc(O)c1C2=O
K562
  IC50: 2780 nM
HEK293 [1]
  IC50: 2200 nM
HL-60
  IC50: 1.11 µM

## CCCCCCCC[N+](C)(CCCCCCCC)Cc1ccc(COc2ccc(OCc3ccc(C[N+](CCO)(CCO)CCO)cc3)c3c2C(=O)c2ccccc2C3=O)cc1.[Br-].[Br-]
K562
  IC50: 10900 nM
[26]
  solubility: 28200 µg/mL
HEK293 [1]
  IC50: 9430 nM
HL-60
  IC50: 7.89 µM

## COc1cccc2c1C(=O)c1c(O)c3c(c(O)c1C2=O)C[C@@](O)(C(=O)CO)C[C@@H]3O[C@H]1C[C@H](N)[C@H](O)[C@H](C)O1 [DOXORUBICIN HYDROCHLORIDE]
K562
  IC50: 630 nM
HEK293 [1]
  IC50: 370 nM
HL-60
  IC50: 0.14 µM
